Laboratory results published in US20220105127A1, “METHODS FOR PROVIDING THE BENEFITS OF METHIONINE RESTRICTION WITHOUT DIETARY RESTRICTION” (priority 2020, published 2022).

Assays:
Assay type in all cases: in vivo, mouse
[1] = tested on: adiponectin; test: Experiment 2: high-fat diet with first compounds, plasma adiponectin ELISA; details: high-fat diet 9 weeks, untreated = 100%, lysine 6.45%, OBS 4.3%, SPC 4.3% of food; for Plasma Adiponectin, Males: male mice
Description: (§1) Food and water were provided ad libitum.
(§2) Body mass and food consumption were monitored once a week for sixteen weeks. Prior to blood collection, animals were fasted for 4 hours to establish a physiological baseline. Blood was then collected from the retro-orbital plexus and processed using EDTA-K2-coated blood collection tubes (Milian Dutscher Group; Geneva, Switzerland). The resulting plasma was frozen and stored at −80° C. until used for analysis. A portion of each blood sample was used for blood glucose determination using an Abbott Freestyle Lite glucometer and glucose strips (Abbott Diabetes Care, Inc.; Alameda, Calif.). At the end of each study, animals were fasted and bled, as described above. The mice were then sacrificed, their overall body condition was assessed, and certain physiological parameters were measured. The inguinal and perigonadal fat pads, as well as liver of each mouse, were harvested by surgical resection, weighed, flash frozen, and stored at −80° C.
(§3) Enzyme-linked immunosorbent assay (ELISA) kits were obtained commercially and used to measure plasma levels of IGF-1 (R&D Systems; Minneapolis, Minn.), adiponectin (R&D Systems), FGF-21 (Millipore Corp.; Billerica, Mass.), leptin (R&D Systems), growth hormone (Millipore Corp.), and insulin (ALPCO Diagnostics; Salem, N.H.). Tests were performed according to the manufacturers' recommendations and measured using a Molecular Devices SpectraMax M5 Microplate Reader (Molecular Devices LLC; San Jose, Calif.). Two technical replicates were performed for each sample and the statistical significance of the resulting values determined by unpaired two-tailed t-tests using the software package Prism 8 (Graph-Pad Software; La Jolla, Calif.).

[2] = tested on: plasma glucose; test: Experiment 2: high-fat diet with first compounds, plasma glucose; details: high-fat diet 9 weeks, untreated = 100%, lysine 6.45%, OBS 4.3%, SPC 4.3% of food; for Plasma Glucose, Males: male mice
Description: as §1, §2

[3] = tested on: FGF-21; test: Experiment 2: high-fat diet with first compounds, plasma FGF-21 ELISA; details: untreated = 100%
Description: as §1, §2, §3

[4] = tested on: insulin; test: Experiment 2: high-fat diet with first compounds, plasma insulin ELISA; details: high-fat diet 9 weeks, untreated = 100%, lysine 6.45%, OBS 4.3%, SPC 4.3% of food; for Plasma Insulin, Males: male mice
Description: as §1, §2, §3

[5] = tested on: IGF-1; test: Experiment 2: high-fat diet with first compounds, plasma IGF-1 ELISA; details: high-fat diet 9 weeks, untreated = 100%, lysine 6.45%, OBS 4.3%, SPC 4.3% of food; for Plasma IGF-1, Males: male mice
Description: as §1, §2, §3

[6] = tested on: leptin; test: Experiment 2: high-fat diet with first compounds, plasma leptin ELISA; details: high-fat diet 9 weeks, untreated = 100%, lysine 6.45%, OBS 4.3%, SPC 4.3% of food; for Plasma Leptin, Males: male mice
Description: as §1, §2, §3

[7] = tested on: C57BL/6J mice; test: Experiment 2: high-fat diet with first compounds, body mass and inguinal/perigonadal fat pad mass; details: high-fat diet 9 weeks, untreated = 100%, lysine 6.45%; for Total Body Mass, Males / Inguinal Fat Mass, Males / Perigonadal Fat Mass, Males: male mice; for Total Body Mass, Males: tryptophan dose not given
Description: as §1
as §2, with “Prior” for “Body mass and food consumption were monitored once a week for sixteen weeks. Prior”

[8] = tested on: IGF-1; test: Experiment 1: high-fat diet with selenium compounds, plasma IGF-1 ELISA; details: sodium selenite 0.0073% of food
Description: (§4) All animal studies conducted were approved by the Institutional Animal Care and Use Committee (IACUC) of the Orentreich Foundation for the Advancement of Science, Inc. (Permit Number: 0511 MB). C57BL/6J mice (stock number 000664) were purchased from the Jackson Laboratories (Bar Harbor, Me.) and housed in a conventional animal facility maintained at 20±2° C., 50±10% relative humidity, with a 12 hr/12 hr light/dark photoperiod. Food and water were provided ad libitum. Upon arrival, mice were acclimatized for up to one week and fed Purina Lab Chow 5001 (Ralston Purina, Co.; St. Louis, Mo.).
(§5) At the beginning of the experiment, the mice were divided into 5 groups with each group being fed one of five isocaloric (5.3 kcal/gm) high-fat diets ad libitum for several weeks. Each high-fat diet comprising a base of 12% kcal protein, 31% kcal carbohydrate, and 57% kcal fat. The first group's diet was the control-fed diet and included the base and methionine in an amount that represented about 0.86% of the weight of the food (sometimes referred to as “control group,” “control-fed group,” or “group 1”). […] Amounts of selenium-containing compounds used for this and subsequent experiments were determined from pilot studies aimed at identifying minimal doses that still achieve high efficacy. […]
(§6) Body mass and food consumption were monitored once a week for sixteen weeks. […] The mice were then sacrificed, their overall body condition was assessed, and certain physiological parameters were measured. […]
as §3, with “Two technical replicates were performed for each sample and the statistical significance of the resulting values determined by unpaired two-tailed t-tests using the software package Prism 8 (Graph-Pad Software; La Jolla, Calif.).” left out

[9] = tested on: FGF-21; test: Experiment 1: high-fat diet with selenium compounds, plasma FGF-21 ELISA; details: untreated = 100%, sodium selenite 0.0073% of food
Description: as §4
(§7) At the beginning of the experiment, the mice were divided into 5 groups with each group being fed one of five isocaloric (5.3 kcal/gm) high-fat diets ad libitum for several weeks. Each high-fat diet comprising a base of 12% kcal protein, 31% kcal carbohydrate, and 57% kcal fat. […] Amounts of selenium-containing compounds used for this and subsequent experiments were determined from pilot studies aimed at identifying minimal doses that still achieve high efficacy. […]
as §6

[10] = tested on: insulin; test: Experiment 1: high-fat diet with selenium compounds, plasma insulin ELISA; details: untreated = 100%, sodium selenite 0.0073% of food
Description: as §4, §7, §6

[11] = tested on: plasma glucose; test: Experiment 1: high-fat diet with selenium compounds, plasma glucose; details: untreated = 100%, sodium selenite 0.0073% of food
Description: as §4, §7, §6

[12] = tested on: leptin; test: Experiment 1: high-fat diet with selenium compounds, plasma leptin ELISA
Description: as §4, §5, §6
as §3, with “Two technical replicates were performed for each sample and the statistical significance of the resulting values determined by unpaired two-tailed t-tests using the software package Prism 8 (Graph-Pad Software; La Jolla, Calif.).” left out

[13] = tested on: adiponectin; test: Experiment 1: high-fat diet with selenium compounds, plasma adiponectin ELISA; details: untreated = 100%, sodium selenite 0.0073% of food
Description: as §4, §7, §6

[14] = tested on: C57BL/6J mice; test: Experiment 1: high-fat diet with selenium compounds, body mass, fat pad and liver mass; details: high-fat diet, untreated = 100%, sodium selenite 0.0073% of food, selenomethionine 0.0036% or 0.0073% (which not stated)
Description: as §4
At the beginning of the experiment, the mice were divided into 5 groups with each group being fed one of five isocaloric (5.3 kcal/gm) high-fat diets ad libitum for several weeks. Each high-fat diet comprising a base of 12% kcal protein, 31% kcal carbohydrate, and 57% kcal fat. The first group's diet was the control-fed diet and included the base and methionine in an amount that represented about 0.86% of the weight of the food (sometimes referred to as “control group,” “control-fed group,” or “group 1”). The second group's diet was the methionine-restricted group where the base-diet was restricted to 0.12% methionine as a percentage of the total weight of the food (sometimes referred to as “methionine-restricted group” or “group 2”). The third group was fed the base diet containing 0.86% methionine, which was supplemented with sodium selenite in an amount representing 0.0073% of the total weight of the food (sometimes referred to as “sodium selenite-supplemented group” or “group 3”). The fourth group was fed the base diet containing 0.86% methionine, supplemented with 0.0036% selenomethionine, as a percentage of the total food weight (sometimes referred to as “group 4”). The fifth group was fed the base diet containing 0.86% methionine as a percentage of the total weight of the food, supplemented with 0.0073% selenomethionine as a percentage of the total weight of the food (sometimes referred to as “group 5”). Amounts of selenium-containing compounds used for this and subsequent experiments were determined from pilot studies aimed at identifying minimal doses that still achieve high efficacy. […] The amount of selenomethionine administered to the animals in the fourth and fifth groups was approximately 1/200 and 1/100 times respectively, of the levels of sulfur-containing amino acids (i.e., methionine and cysteine) present in the subjects' diets.
as §2

[15] = female mice, OBS 4.3%, SPC 4.3% of food
[16] = O-benzyl serine 4.3%, S-phenyl cysteine 4.3% of food

SMILES: NCCCC[C@H](N)C(=O)O [Lysine, lysine]
- Plasma Adiponectin, Females ([1]; female mice): 125%
- Plasma Adiponectin, Males [1]: 92%
- Plasma Glucose, Females ([2]; female mice): 73%
- Plasma Glucose, Males [2]: 84%
- Plasma FGF-21, Females ([3]; female mice, high-fat diet 9 weeks, lysine 6.45%, OBS 4.3%, SPC 4.3% of food): 144%
- Plasma Insulin, Females ([4]; female mice): 41%
- Plasma Insulin, Males [4]: 22%
- Plasma IGF-1, Females ([5]; female mice): 66%
- Plasma IGF-1, Males [5]: 68%
- Plasma Leptin, Females ([6]; female mice): 28%
- Plasma Leptin, Males [6]: 13%
- Total Body Mass, Females ([7]; female mice, O-benzyl serine 4.3%, S-phenyl cysteine 4.3% of food): 72%
- Inguinal Fat Mass, Females [7, 15]: 38%
- Perigonadal Fat Mass, Females [7, 15]: 37%
- Total Body Mass, Males [7, 16]: 91%
- Inguinal Fat Mass, Males ([7]; OBS 4.3%, SPC 4.3% of food): 42%
- Perigonadal Fat Mass, Males ([7]; OBS 4.3%, SPC 4.3% of food): 34%

SMILES: N[C@@H](Cc1c[nH]c2ccccc12)C(=O)O [Tryptophan, tryptophan]
- Plasma Adiponectin, Males [1]: 118%
- Plasma Glucose, Males [2]: 94%
- Plasma FGF-21, Males ([3]; male mice, high-fat diet, tryptophan dose not given): 502%
- Plasma Insulin, Males [4]: 56%
- Plasma IGF-1, Males [5]: 73%
- Plasma Leptin, Males [6]: 18%
- Total Body Mass, Males [7, 16]: 85%
- Inguinal Fat Mass, Males ([7]; OBS 4.3%, SPC 4.3% of food): 50%
- Perigonadal Fat Mass, Males ([7]; OBS 4.3%, SPC 4.3% of food): 39%

SMILES: O=[Se](O)O [Sodium Selenite, sodium selenite]
- Plasma IGF-1, Females ([8]; female mice, untreated = 100%): 35%
- Plasma IGF-1, Males ([8]; male mice, untreated = 100%): 63%
- reduction of plasma IGF-1 levels as compared with control values ([8]; at the conclusion of experiment 1): 37%
- Plasma FGF-21, Females ([9]; female mice): 3971%
- Plasma FGF-21, Males ([9]; male mice): 3045%
- Plasma Insulin, Females ([10]; female mice): 25%
- Plasma Insulin, Males ([10]; male mice): 19%
- Plasma Glucose, Females ([11]; female mice): 69%
- Plasma Glucose, Males ([11]; male mice): 71%
- Plasma Leptin, Females ([12]; female mice, high-fat diet, untreated = 100%, sodium selenite 0.0073% of food): 17%
- Plasma Leptin, Males ([12]; male mice, high-fat diet, untreated = 100%, sodium selenite 0.0073% of food): 4%
- reduction in circulating leptin as compared with controls ([12]; male mice, sodium selenite-supplemented high-fat diet for 16 weeks): 96%
- Plasma Adiponectin, Females ([13]; female mice): 134%
- Plasma Adiponectin, Males ([13]; male mice): 128%
- Inguinal Fat Mass, Females ([14]; female mice): 19%
- Perigonadal Fat Mass, Females ([14]; female mice): 20%
- Total Body Mass, Females ([14]; female mice, 16 weeks): 66%
- Inguinal Fat Mass, Males ([14]; male mice): 17%
- Perigonadal Fat Mass, Males ([14]; male mice): 20%
- Total Body Mass, Males ([14]; male mice, 16 weeks): 60%
